Experiments:
Settings in all cases: 72 h
HepG2 [1] = assay: cell viability relative to DMSO; higher = less toxic
Vero E6 [2] = assay: as above
U2OS [3] = assay: as above
Caco-2 [4] = assay: as above
Calu-3 [5] = assay: as above
HepG2 [6] = assay: relative viability EC50 (midpoint between 100% and the lowest measured viability); higher = less toxic
Vero E6 [7] = assay: as above
U2OS [8] = assay: as above
Caco-2 [9] = assay: as above
Calu-3 [10] = assay: as above
HepG2 [11] = assay: drug sensitivity score (DSS) for viability; higher = more toxic; extreme values may be limits of the assay
Vero E6 [12] = assay: as above
U2OS [13] = assay: as above
Caco-2 [14] = assay: as above
Calu-3 [15] = assay: as above

Structure (SMILES)	cell viability (HepG2 [1]; 1 nM) [%]	cell viability (HepG2 [1]; 10 nM) [%]	cell viability (HepG2 [1]; 100 nM) [%]	cell viability (HepG2 [1]; 1000 nM) [%]	cell viability (HepG2 [1]; 10000 nM) [%]	cell viability (Vero E6 [2]; 1 nM) [%]	cell viability (Vero E6 [2]; 10 nM) [%]	cell viability (Vero E6 [2]; 100 nM) [%]	cell viability (Vero E6 [2]; 1000 nM) [%]	cell viability (Vero E6 [2]; 10000 nM) [%]	cell viability (U2OS [3]; 1 nM) [%]	cell viability (U2OS [3]; 10 nM) [%]	cell viability (U2OS [3]; 100 nM) [%]	cell viability (U2OS [3]; 1000 nM) [%]	cell viability (U2OS [3]; 10000 nM) [%]	cell viability (Caco-2 [4]; 1 nM) [%]	cell viability (Caco-2 [4]; 10 nM) [%]	cell viability (Caco-2 [4]; 100 nM) [%]	cell viability (Caco-2 [4]; 1000 nM) [%]	cell viability (Caco-2 [4]; 10000 nM) [%]	cell viability (Calu-3 [5]; 1 nM) [%]	cell viability (Calu-3 [5]; 10 nM) [%]	cell viability (Calu-3 [5]; 100 nM) [%]	cell viability (Calu-3 [5]; 1000 nM) [%]	cell viability (Calu-3 [5]; 10000 nM) [%]	relative viability EC50 (HepG2 [6]) [µM]	relative viability EC50 (Vero E6 [7]) [µM]	relative viability EC50 (U2OS [8]) [µM]	relative viability EC50 (Caco-2 [9]) [µM]	relative viability EC50 (Calu-3 [10]) [µM]	drug sensitivity score (HepG2 [11])	drug sensitivity score (Vero E6 [12])	drug sensitivity score (U2OS [13])	drug sensitivity score (Caco-2 [14])	drug sensitivity score (Calu-3 [15])
CCC(=O)O[C@@H]1CC(=O)O[C@H](C)C/C=C/C=C/[C@H](OC(C)=O)[C@H](C)C[C@H](CC=O)[C@H](O[C@@H]2O[C@H](C)[C@@H](O[C@H]3C[C@@](C)(OC(C)=O)[C@@H](OC(=O)CC)[C@H](C)O3)[C@H](N(C)C)[C@H]2O)[C@H]1OC [miocamycin]	96.2	90.8	103	90.6	90	97.5	96.8	96.4	99.1	96.7	96.9	98.7	97.9	99.7	92.4	98.4	102	96.5	96.5	85.6	91.1	104	85.1	92.8	82.4	> 10	> 10	> 10	> 10	> 10	0	0	0	0.4	0.9
CC(C)(Oc1ccc(Cl)cc1)C(=O)OCCOC(=O)c1cccnc1 [etofibrate]	92.7	106	96	99.1	111	93.5	99.7	91.7	93.9	98.5	101	94.1	102	94.9	96.6	95.3	88.1	94	92.1	105	86.8	89.6	99.1	111	101	> 10	> 10	> 10	> 10	> 10	0	0	0	0	0
COc1ccc2nc3cc(Cl)ccc3c(Nc3cc(CN4CCCC4)c(O)c(CN4CCCC4)c3)c2n1 [pyronaridine]	105	87	99.8	90.5	-0.1	104	102	108	96.7	0.1	98.3	104	97.2	102	31.7	99.2	95.8	100	87.9	29.4	102	111	95.5	104	46.4	2.38	2.93	3.34	1.87	3.54	7.1	6	3.6	5.9	2.5
CN(C)CCCSc1ccccc1NC(=O)/C=C/c1ccccc1 [cinanserin]	94.3	94.1	101	102	85.8	99.4	99.9	97	101	87.9	108	99.6	98.5	97.2	97.6	92.4	95	94.4	97.3	102	108	98.6	98.1	90.7	98.9	> 10	> 10	> 10	> 10	> 10	0.1	0	0	0	0
CN(C)C/C=C(/c1ccc(Br)cc1)c1cccnc1 [zimelidine]	103	97.8	102	94.2	102	101	100	102	96.5	100	89.6	97.5	91.3	100	90.3	100	98.9	90.6	93.6	101	99.7	107	96.6	99.2	93	> 10	> 10	> 10	> 10	> 10	0	0	0	0	0
CC(=O)OCC(=O)[C@@]12N=C(C)O[C@@H]1C[C@H]1[C@@H]3CCC4=CC(=O)C=C[C@]4(C)[C@H]3[C@@H](O)C[C@@]12C [Deflazacort (Calcort)]	109	103	110	102	95.9	99.1	99	102	102	102	99.7	95.6	99.7	94.4	97.7	97.8	93.3	92.8	101	97.9	102	92.9	97.2	80.9	93.1	> 10	> 10	> 10	> 10	> 10	0	0	0	0	0.4
C1N2CN3CN1CN(C2)C3 [methenamine]	98.4	96.2	102	105	106	98.7	92.3	93.1	94.6	102	89.9	97.5	100	98.2	99.7	94.6	99.8	96.5	104	106	97.1	96.4	97.2	102	93.5	> 10	> 10	> 10	> 10	> 10	0	0	0	0	0
COc1cc2c(Oc3ccc(NC(=O)C4(C(=O)Nc5ccc(F)cc5)CC4)cc3F)ccnc2cc1OCCCN1CCOCC1 [foretinib]	94.7	95.7	101	47.8	0.1	102	97.9	102	74.3	0.2	103	99.1	94.2	75.1	0	102	98.6	97.2	70.3	5.3	99.7	98.6	96.9	84.7	5.1	0.965	1.52	1.55	1.37	1.92	11.9	9.4	9.3	9.5	7.8
CC(=O)Nc1ccc(OC[C@](C)(O)C(=O)Nc2ccc([N+](=O)[O-])c(C(F)(F)F)c2)cc1 [andarine]	105	98.8	100	103	99	101	104	101	96.3	100	97.9	102	94.8	98	93.9	97.4	98.6	87.3	93.5	99.2	93.1	98.1	90.2	105	90.3	> 10	> 10	> 10	> 10	> 10	0	0	0	0	0
O=C(O)C1=CO[C@@H](O[C@@H]2O[C@H](CO)[C@@H](O)[C@H](O)[C@H]2O)[C@@H]2C(CO)=CC[C@H]12 [Geniposidic acid]	110	105	102	111	94.6	100	107	97.5	104	101	102	96.2	101	94.5	101	117	101	106	103	96.3	98.7	103	95.4	113	108	> 10	> 10	> 10	> 10	> 10	0	0	0	0	0
CCNC(=O)CCC/C=C\C[C@@H]1[C@@H](/C=C/[C@@H](O)CCc2ccccc2)[C@H](O)C[C@@H]1O [bimatoprost]	88.6	93	95.1	107	105	97.7	105	96.1	100	106	102	93.3	103	96.4	107	97.5	89.8	106	92.2	101	113	97.6	101	100	101	> 10	> 10	> 10	> 10	> 10	0	0	0	0	0
CCCCCCCCCCCCCCCCCC(=O)OCC(O)CO (stereo not given) [monostearin]	104	103	97.1	96.5	102	99.9	106	96.3	99.5	100	97.8	96.5	92	104	93.8	100	96.9	89.6	100	96.9	103	101	83.9	105	94.8	> 10	> 10	> 10	> 10	> 10	0	0	0	0	0
COc1cc(C(C)=O)ccc1OCCCN1CCC(c2noc3cc(F)ccc23)CC1 [iloperidone]	91.9	91.3	94.4	94.2	88.6	101	96.7	94.7	98	95.6	97.9	97.5	96.6	99.6	91	90.7	98.5	84.8	94.9	82	93	96.7	104	104	80.5	> 10	> 10	> 10	> 10	> 10	0	0	0	0.8	0.4
O=S(=O)(O)c1cc(O)ccc1O [etamsylate]	107	105	110	108	97.8	96.2	94.5	104	94.5	106	92.5	98.3	95.7	99	104	89.7	100	91	98.8	92.4	95.6	100	106	95	95.3	> 10	> 10	> 10	> 10	> 10	0	0	0	0	0
CCCCNc1ccc(C(=O)OCCN(C)C)cc1 [tetracaine]	99.5	99.3	104	104	94.3	107	105	103	101	99.5	104	97.4	98.7	98.2	102	101	92.7	105	100	101	107	101	98.2	98.4	108	> 10	> 10	> 10	> 10	> 10	0	0	0	0	0
OC[C@@H](O)[C@@H](O)CO [erythritol]	108	116	100	97.1	98.9	105	102	101	102	98.1	94.8	98.1	97.8	99.6	97.7	94.1	101	97.9	91	100	102	97.9	112	97	98.7	> 10	> 10	> 10	> 10	> 10	0	0	0	0	0
C#C[C@]1(O)CC[C@H]2[C@@H]3CCC4=CC(=NO)CC[C@@H]4[C@H]3CC[C@@]21CC (mixture of isomers) [norelgestromin]	95.9	101	105	108	110	102	101	92	99.1	103	99.1	101	94.4	101	98.6	89	94.1	91.7	98.3	98.5	102	95.2	103	93.5	101	> 10	> 10	> 10	> 10	> 10	0	0	0	0	0
NS(=O)(=O)c1cc2c(cc1Cl)N=C(CSCc1ccccc1)NS2(=O)=O [benzthiazide]	105	86	101	94.3	89.7	102	98.5	98.4	101	98.9	100	98.8	94.6	98.4	96	103	101	93.2	96.2	80.7	84.5	104	101	106	101	> 10	> 10	> 10	> 10	> 10	0	0	0	0.9	0
O=C(NCCN1CCOCC1)c1ccc(Cl)cc1 [moclobemide]	99.4	94.4	108	98.3	103	98.5	93.3	98.5	95.9	110	92.6	98.9	96.3	103	106	88.4	99.2	90.7	88.9	94.1	93.5	103	92.9	103	106	> 10	> 10	> 10	> 10	> 10	0	0	0	0	0
COc1cc(C(=O)c2c(C)oc3c(O)c(OC)ccc23)cc(OC)c1OC [BNC105]	86.2	60.4	42.6	35.7	38	34.9	22.7	22.8	27.9	30.4	100	44.7	20.9	19.3	19.7	62.8	39.6	41.4	37.9	41.1	106	54.6	33.7	39.2	30.9	0.0055	< 0.001	0.0073	< 0.001	0.0078	24.7	38.3	31.5	30.3	27
CCCC(C(=O)OCCN(CC)CC)(c1ccccc1)c1ccccc1 [proadifen]	101	100	92.6	95	88.1	97.9	96	98.4	97.3	99.8	93	97.9	99.1	102	98.5	89.8	101	102	101	87.9	99.3	93.1	101	105	99.6	> 10	> 10	> 10	> 10	> 10	0	0	0	0	0
CCC(Cc1c(I)cc(I)c(N)c1I)C(=O)O (stereo not given) [iopanic-acid]	106	112	100	110	99	109	103	104	102	93	99.7	95.6	97.9	96.7	97.1	110	107	98.8	85.8	113	101	91.4	96.4	102	108	> 10	> 10	> 10	> 10	> 10	0	0	0	0	0

From the supplement of paper PMC13380429
